Test results as given in patent US20210315893A1 (Galapagos NV, priority 2017, published 2021).
pEC50: −log10 of the molar value.

Experiments:
[1] = molecular target: T1, human GPCR sphingosine 1-phosphate receptor 2 (Homo sapiens, UniProt O95136); assay: S1PR2 antagonist Ca2+ flux assay; format: cell-based; conditions: antagonist mode, CHO-S1PR2 cells, S1P at EC80, Ca2+ fluorescence; read-out: S1P2 EC50 (nM), S1P2 antagonist EC50
T1 construct: host or cells: CHO
Method in brief: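 Antagonist mode: 15 min after compound addition, S1P (EC80) stimulates Fluo8-loaded, 1 h-starved CHO-S1PR2 cells, Ca2+ read over 3 min; a prior 3-min read checks compound agonism. EC50 from peak/baseline fluorescence ratio, normalised versus vehicle and S1P EC50 (antagonist) or EC100 (agonist).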

[2] = molecular target: T2, human GPCR sphingosine 1-phosphate receptor 1 (Homo sapiens, UniProt P21453); assay: S1PR1 selectivity Ca2+ flux assay (antagonist readout); format: cell-based; conditions: antagonist readout, CHO cells overexpressing human S1PR1 and Gq, S1P at EC80 (6 nM); read-out: S1P1 EC50 (nM), S1P1 antagonist EC50
T2 construct: host or cells: CHO
T2 sequence (P21453 whole entry): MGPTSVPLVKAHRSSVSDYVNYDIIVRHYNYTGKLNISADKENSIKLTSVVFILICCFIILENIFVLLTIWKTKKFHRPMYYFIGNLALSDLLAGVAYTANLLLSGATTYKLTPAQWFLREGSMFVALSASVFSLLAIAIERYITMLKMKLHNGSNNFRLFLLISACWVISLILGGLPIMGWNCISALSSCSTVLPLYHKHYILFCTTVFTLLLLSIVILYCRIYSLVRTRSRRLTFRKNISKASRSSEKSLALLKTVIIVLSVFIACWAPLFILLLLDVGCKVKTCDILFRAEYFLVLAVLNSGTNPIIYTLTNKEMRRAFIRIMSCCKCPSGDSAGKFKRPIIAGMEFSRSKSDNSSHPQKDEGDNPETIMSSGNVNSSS
Experimental: (§1) 50 μL of Chinese hamster ovary (CHO) cells stably overexpressing human S1PR1 or S1PR5 are seeded in 384 well sterile microplates (7,500 cells/well or 10,000 cells/well respectively) and are incubated overnight at 37° C. under 5% CO2. Cells are subsequently washed twice with 25 μL/well of starvation medium (F-12 Ham's medium containing 0.1% fatty acid free bovine serum albumin (FAF BSA)). After one h starvation at 37° C., 5% CO2, cells are loaded with 25 μL of Fluo 8 dye diluted in Hank's balanced salt solution (HBSS) with 20 mM Hepes complemented with 5 mM of probenecid following the recommendations of the manufacturer (one h at 37° C., 5% CO2). Dilution series of compounds are prepared in HBSS buffer with 20 mM Hepes and 0.1% BSA (FAF). 10 μL of diluted compound is added to the cells using the FDSS/pCELL and intracellular calcium changes are measured immediately by recording fluorescence during 3 min (agonist readout). The ratio of maximal signal over background before compound injection is used to determine compound response.
After an incubation of 15 min at 37° C., following the agonist readout, the plates are transferred to the FDSS/pCELL reader. […] The ratio of maximal signal over background before S1P injection was used to determine the inhibitory effect ofthe compound.
(§2) Raw data obtained in each experiment (ratio of maximal signal over background for calcium mobilization assays) were normalized in percentage of activation (agonist mode) or inhibition (antagonist mode) using positive and negative experiment controls. Each individual plate quality was assessed by evaluation of Z′ factor calculated with raw data using the following equation
(§3) Y=bottom+(top−bottom)/(1+(10^(Log IC50−X)*Hillslope)) where X is the logarithm of the concentration of the compound

[3] = molecular target: T3, human GPCR sphingosine 1-phosphate receptor 5 (Homo sapiens, UniProt Q9H228); assay: S1PR5 selectivity Ca2+ flux assay (antagonist readout); format: cell-based; conditions: CHO cells overexpressing human S1PR5 and Gq, agonist at EC80 (20 nM), read-out: S1P5 EC50 (nM), S1P5 antagonist EC50
T3 construct: host or cells: CHO
T3 sequence (Q9H228 whole entry): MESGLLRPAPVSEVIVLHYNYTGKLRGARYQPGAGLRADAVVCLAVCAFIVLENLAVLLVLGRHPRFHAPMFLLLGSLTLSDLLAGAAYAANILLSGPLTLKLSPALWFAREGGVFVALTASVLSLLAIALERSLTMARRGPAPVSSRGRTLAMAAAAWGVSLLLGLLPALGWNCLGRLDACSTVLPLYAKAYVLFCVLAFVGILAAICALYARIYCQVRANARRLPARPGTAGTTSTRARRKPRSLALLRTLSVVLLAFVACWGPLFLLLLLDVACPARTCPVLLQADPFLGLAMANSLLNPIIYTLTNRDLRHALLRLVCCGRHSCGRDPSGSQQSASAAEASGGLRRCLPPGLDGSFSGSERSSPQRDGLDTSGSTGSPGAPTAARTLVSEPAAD
Description: To evaluate the selectivity of the compounds for S1PR2 over S1PR1 and S1PR5, asimilar assay set upas described above for theS1PR2 calcium flux assays waspeformed: CHO cells stably overexpressing human GPCR sphingosine 1-phosphate receptor 1 and Gq protein (Euroscreen, FAST-0197A) or overexpressing human GPCR sphingosine 1-phosphate receptorS5 and Gq protein were used (Perkin Elmer, ES-593-A). In case of the S1PR5 assay triggering was done with an SPR5 specific agonist instead of with S1P (Hobson et al., 2015).
as §1
After an incubation of 15 min at 37° C., following the agonist readout, the plates are transferred to the FDSS/pCELL reader. Cells are stimulated with 10 μL of EC80 concentration of S1P (6 nM for S1P1 and 20 nM for S1P5) and intracellular calcium changes are measured immediately by recording fluorescence during three min (antagonist readout). The ratio of maximal signal over background before S1P injection was used to determine the inhibitory effect ofthe compound.
as §2, §3

S1PR2 = molecular target: T4, S1PR2 (Homo sapiens, UniProt O95136); assay: S1PR2 binding assay (competition with radioactively labeled S1P, SpA); conditions: membranes from stable cell line over expressing S1PR2, SpA beads; read-out: S1P2 EC50 (nM), S1PR2 binding EC50
T4 construct: expressed in transfected cells
T4 sequence (O95136 whole entry): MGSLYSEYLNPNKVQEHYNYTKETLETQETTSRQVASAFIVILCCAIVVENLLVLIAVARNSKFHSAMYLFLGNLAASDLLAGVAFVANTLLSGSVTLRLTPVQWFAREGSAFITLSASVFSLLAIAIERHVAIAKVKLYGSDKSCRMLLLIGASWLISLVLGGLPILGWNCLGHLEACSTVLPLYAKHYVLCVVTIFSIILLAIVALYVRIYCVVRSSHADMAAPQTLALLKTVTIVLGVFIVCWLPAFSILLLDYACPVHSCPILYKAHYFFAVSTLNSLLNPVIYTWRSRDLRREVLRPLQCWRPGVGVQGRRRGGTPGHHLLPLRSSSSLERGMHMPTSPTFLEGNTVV
Method in brief: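 Scintillation proximity read-out after 2 h room-temperature incubation of compound, [3H]S1P and S1PR2-overexpressing cell membranes on WGA-coated beads. Buffer: 20 mM Tris pH 7.5, 100 mM NaCl, 10 mM MgCl2, 1 mM Na3VO4, 0.4% fatty-acid-free BSA; plates counted immediately after centrifugation.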

HFL-1 cells [4] = assay: IL-8 production assay (S1P induced IL-8); format: cell-based; conditions: Homo sapiens, HFL1; S1P (1 μM) induced IL-8 in HFL-1 cells, starvation medium without HSA; read-out: IL8 EC50
Method in brief: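 HFL-1 fibroblasts in low-serum medium were pretreated 1 h with a 10-point 1/3 series of compound starting at 30 μM (0.3% DMSO).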

HFL-1 cells [5] = assay: IL8 assay in the presence of Human Serum Albumin; conditions: HFL1, read-out: HSA IL8 EC50

T1 sequence (O95136 whole entry): as above

Compound | EC50 [1] [nM] | EC50 [2] [nM] | EC50 [3] [nM] | EC50 (S1PR2) [nM] | pEC50 (HFL-1 cells [4]) | pEC50 (HFL-1 cells [5])
O=c1c2ccccc2c(Cc2nc3cc(Cl)c(OC(F)(F)F)cc3[nH]2)nn1C1CC1 [Compound 25, 4-[[5-chloro-6-(trifluoromethoxy)-1H-benzimidazol-2-yl]methyl]-2-cyclopropyl-phthalazin-1-one] | 218 | 4710 | 4790 | 565 | 6.08 | 5.00
O=c1c2ccccc2c(Cc2nc3cc(Cl)c(OCC(F)F)cc3[nH]2)nn1C1CC1 [Compound 32, 4-[[5-chloro-6-(2,2-difluoroethoxy)-1H-benzimidazol-2-yl]methyl]-2-cyclopropyl-phthalazin-1-one] | 19.3 | ≥ 19800 | 6610 | 245 | 7.02 | 5.53
O=C(O)C1(c2nn(Cc3cn4cc(OCC5CC5)c(Cl)cc4n3)c3ccccc3c2=O)CC1 [Compound 96, 1-[1-[[7-chloro-6-(cyclopropylmethoxy)imidazo[1,2-a]pyridin-2-yl]methyl]-4-oxo-cinnolin-3-yl]cyclopropanecarboxylic acid] |  | ≥ 19800 | 19800 |  | 7.52 | 6.37
O=C(O)Cn1nc(Cc2nc3cc(Cl)c(OCC(F)F)cc3[nH]2)c2ccccc2c1=O [Compound 118, 2-[4-[[5-chloro-6-(2,2-difluoroethoxy)-1H-benzimidazol-2-yl]methyl]-1-oxo-phthalazin-2-yl]acetic acid] |  | ≥ 19800 | 19800 |  | 7.59 | 7.02
O=C(O)Cn1nc(Cc2nc3cc(OCC4CC4)c(C(F)(F)F)cc3[nH]2)c2ccccc2c1=O [Compound 123, 2-[4-[[5-(cyclopropylmethoxy)-6-(trifluoromethyl)-1H-benzimidazol-2-yl]methyl]-1-oxo-phthalazin-2-yl]acetic acid] |  | 1840 | 19800 |  | 8.75 | 7.59
N#Cc1cc2nc(Cc3nn(CC(=O)N4CCOCC4)c(=O)c4ccccc34)[nH]c2cc1OCC(F)F [Compound 171, 6-(2,2-difluoroethoxy)-2-[[3-(2-morpholino-2-oxo-ethyl)-4-oxo-phthalazin-1-yl]methyl]-1H-benzimidazole-5-carbonitrile] | 30 | ≥ 19800 | 19800 |  | 7.64 | 7.35
N#Cc1cc2[nH]c(Cc3nn(CC4CCCN4)c(=O)c4ccccc34)nc2cc1OCC(F)F (centres unmarked) [compound 1, 6-(2,2-difluoro-ethoxy)-2-[[4-oxo-3-(pyrrolidin-2-ylmethyl)-phthalazin-1-yl]-methyl]-3H-benzimidazole-5-carbonitrile] |  | ≥ 19800 | 19800 | 3930 | 5.48 | 4.81

Next, values leading:

EC50 [1] [nM] | EC50 [2] [nM] | EC50 [3] [nM] | EC50 (S1PR2) [nM] | pEC50 (HFL-1 cells [4]) | pEC50 (HFL-1 cells [5]) | Compound
 | ≥ 19800 | 6610 |  | 8.24 | 7.19 | O=C(O)Cc1nn(Cc2cn3cc(OCC4CC4)c(Cl)cc3n2)c2ccccc2c1=O [Compound 89, 2-[1-[[7-chloro-6-(cyclopropylmethoxy)imidazo[1,2-a]pyridin-2-yl]methyl]-4-oxo-cinnolin-3-yl]acetic acid]
 | ≥ 19800 | 19800 |  | 6.98 | 6.57 | COC(C(=O)O)c1nn(Cc2cn3cc(OCC4CC4)c(Cl)cc3n2)c2ccccc2c1=O (centres unmarked) [Compound 94, 2-[1-[[7-chloro-6-(cyclopropylmethoxy)imidazo[1,2-a]pyridin-2-yl]methyl]-4-oxo-cinnolin-3-yl]-2-methoxy-acetic acid]
 | ≥ 19800 | 19800 |  | 8.24 | 7.57 | CCC(C(=O)O)c1nn(Cc2cn3cc(OCC4CC4)c(Cl)cc3n2)c2ccccc2c1=O (centres unmarked) [Compound 98, 2-[1-[[7-chloro-6-(cyclopropylmethoxy)imidazo[1,2-a]pyridin-2-yl]methyl]-4-oxo-cinnolin-3-yl]butanoic acid]
 | ≥ 19900 | 627 |  | 7.49 | 5.78 | O=C(O)Cn1nc(Cn2cc3cc(OCC4CC4)c(Cl)cc3n2)c2ccccc2c1=O [Compound 114, 2-[4-[[6-chloro-5-(cyclopropylmethoxy)indazol-2-yl]methyl]-1-oxo-phthalazin-2-yl]acetic acid]
 | 13200 | 19800 |  | 7.18 | 6.35 | O=C(O)Cn1nc(Cc2nc3cc(OCC4CC4)c(F)cc3[nH]2)c2ccccc2c1=O [Compound 124, 2-[4-[[5-(cyclopropylmethoxy)-6-fluoro-1H-benzimidazol-2-yl]methyl]-1-oxo-phthalazin-2-yl]acetic acid]
 | ≥ 19800 | 19800 |  | 8.79 | 7.72 | CC(C(=O)O)c1nn(Cc2cn3cc(OCC4CC4)c(Cl)cc3n2)c2ccccc2c1=O (centres unmarked) [compound 4, 2-[1-[[7-chloro-6-(cyclopropyl-methoxy)imidazo-[1,2-a]pyridin-2-yl]methyl]-4-oxo-cinnolin-3-yl]propanoic acid]
 | 8810 | 19800 |  | 8.52 | 6.68 | C[C@H](C(=O)O)n1nc(Cn2cc3cc(OCC4CC4)c(Cl)cc3n2)c2ccccc2c1=O [compound 17, ((2R)-2-[4-[[6-chloro-5-(cyclo-propylmethoxy)-indazol-2-yl]-methyl]-1-oxo-phthalazin-2-yl]-propanoic acid)]
 | ≥ 19800 | 19800 |  | 6.68 | 4.65 | C[C@@H](C(=O)O)n1nc(Cn2cc3cc(OCC4CC4)c(Cl)cc3n2)c2ccccc2c1=O [compound 18, (2S)-2-[4-[[6-chloro-5-(cyclo-propylmethoxy)-indazol-2-yl]-methyl]-1-oxo-phthalazin-2-yl]propanoic acid]
 | 19900 | 19900 |  | 8.89 | 7.74 | C[C@H](C(=O)O)c1nn(Cc2cn3cc(OCC4CC4)c(Cl)cc3n2)c2ccccc2c1=O [compound 19, (2S)-2-[1-[[7-chloro-6-(cyclo-propylmethoxy)-imidazo[1,2-a]-pyridin-2-yl]-methyl]-4-oxo-cinnolin-3-yl]-propanoic acid]
 | ≥ 19800 | 19800 |  | 6.87 | 5.48 | C[C@@H](C(=O)O)c1nn(Cc2cn3cc(OCC4CC4)c(Cl)cc3n2)c2ccccc2c1=O [compound 20, (2R)-2-[1-[[7-chloro-6-(cyclo-propylmethoxy)-imidazo[1,2-a]pyridin-2-yl]-methyl]-4-oxo-cinnolin-3-yl]-propanoic acid]
